Test results published in patent publication US6069156A, “Indole derivatives as cGMP-PDE inhibitors” (Fujisawa Pharmaceutical Co., Ltd., priority 1995, dated 2000).
Where two headings read alike, the source gives them in different places.

Key:
[1] = system: aorta (spirally cut strips); test: Smooth Muscle Relaxant: noradrenaline-contracted rat aorta strips; parameters: species or system male Wistar rats; details: contraction by noradrenaline 1 μM, 37° C.
Procedure: The aorta were carefully removed from male Wistar rats, cleaned of fat and extraneous tissue. Spirally cut strips of the aorta were placed in a 25 ml organ bath containing Tyrode solution of the following composition (mM); NaCl, 137; KCl, 2.7; CaCl2, 1.8; NaH2 PO4, 0.4; NaHCO3, 12.0; MgSO4, 1.1; glucose, 5.6. The bath was maintained at 37° C. and bubbled with 95% O2 and 5% CO2. The spirally cut strip was stretched to a resting force of 1.0 g, and the isometric contraction was recorded via a force development transducer on an ink writing recorder. Tissues were equilibrated for 60 minutes before contraction was induced by noradrenaline (NA, 1 μM). The test compounds were cumulatively added to organ bath in increasing concentrations ranging from 10^-8 to 10^-5 M, after maximum stable constriction to NA had been achieved.

[2] = target: T1, cGMP-PDE (Homo sapiens, UniProt O76074); test: cGMP-phosphodiesterase (PDE) Assay (human platelets); type: biochemical
T1 construct: cGMP-PDE was separated from other isozymes in human platelets; from tissue; host or cells: human platelets
Procedure: cGMP-phosphodiesterase (PDE) Assay
cGMP-PDE was separated from other isozymes in human platelets by a modification of the method of Thompson et. al. (Cyclic Nucleotide Phosphodiesterase (PDE), in Methods of Enzymatic analysis, Vol 4, p127-234, 1984). In enzyme inhibition assays, the test compounds were dissolved in 10% DMSO and then diluted with assay buffer (50 mM Tris-HCl, pH 8.0, 0.1 mM dithiothreitol, 2 mM EGTA and 10 u/ml snake venom), at final concentrations ranging from 10^-10 to 10^-6 M. Assays were performed at 0.1 μM substrate ([^3 H]-cGMP) concentration, at 30° C. for 10 minutes using enzyme dilutions which gave 10-20% hydrolysis of substrate. Each assay was initiated by addition of substrate and terminated by addition of anion exchange resin (Dowex 1-X8, 25 μg/mg) followed by centrifugation for 10 minutes (3000 rpm, at 4° C.). Radioactivity of supernatant (^3 H-GMP) was assayed by liquid scintillation counting.

[3] = system: Coronary vasospasm induced with vasopressin; test: Vasopressin Induced-vasospasm Model (ST segment depression); type: in vivo, Male Donryu rats; details: 10 mg/kg orally 30 minutes before vasopressin 0.2 iu/kg
Procedure: Vasopressin Induced-vasospasm Model
Male Donryu rats, weighing 160-200 g, were anesthetized intraperitoneally with sodium pentobarbital (60 mg/kg) 15 minutes before intravenous administration of vasopressin, and the femoral vein was cannulated with polyethylene tubing (diameter 0.8 mm). Coronary vasospasm was induced with vasopressin (0.2 iu/kg) dissolved in saline through the cannula in the femoral vein. The each test compound (10 mg/kg) was administered orally 30 minutes before the administration of vasopressin. The standard limb lead II of the electrocardiogram was recorded with an electrocardiograph. The depression of ST segment was measured as the difference in the amplitudes of the ST segment after and just before the administration of vasopressin. The amplitudes of ST segment were measured at intervals of 0.5 minutes for 5 minutes after administration of vasopressin.

[4] = system: Vascular smooth muscle cells (vSMCs); test: vSMC Proliferation ([3H]-thymidine, PDGF-stimulated); type: cell-based, male Wistar rats; details: Rattus norvegicus, PDGF 10 ng/ml stimulation
Procedure: Vascular smooth muscle cells (vSMCs) were prepared from explants of the thoracic aorta of 10 week old male Wistar rats by a modification of the method of Ross (J. Cell Biol., 50: 172, 1971). They were cultured in DMEM containing 10% fetal calf serum, 1% penicillin G and 1% streptomycin at 37° C. in a 95% air, 5% CO2 humidified atmosphere. vSMCs were seeded in 24 well plates and cultured in the presence of 10% fetal calf serum for 3 days. Cell growth then was arrested by transfer to serum free DMEA. After 24 hours, each test compound or vehicle was added to medium for 1 hour, and then cells were stimulated by PDGF (10 ng/ml). After 24 hours of additional incubation, [^3 H]-thymidine (1 μCi/ml) was added during the final 4 hours of incubation time, and trichloracetic acid insoluble radioactivity was assayed by liquid scintillation counting.

[5] = system: Cyclosporin nephritis; test: Cyclosporin Nephritis Model; type: in vivo, Spontaneously hypertensive rats; details: 3.2 mg/kg orally twice a day for two weeks; cyclosporin 50 mg/kg daily
Procedure: Cyclosporin Nephritis Model
Spontaneously hypertensive rats weighing 250-300 g were used. Cyclosporin dissolved in olive-oil containing 5% ethanol was given orally to the animals in a daily dose 50 mg/kg for 2 weeks. After the last dosing of cyclosporin, 24-hours urine was collected for urinalysis. Blood was withdrawn from the abdominal aorta under ether anesthesia 24 hours after the last dosing of cyclosporin, and plasma was separated by centrifugation for biochemical analysis. The animal were bled to death and kidneys were removed for histopathological examination.
The each test compound (3.2 mg/kg) was dissolved in PEG 400 and given orally by the volume of 1 ml/kg twice a day for two weeks.
(§1) Biochemistry and urinalysis: Urine volume, plasma creatinine, urine creatinine, blood urea nitrogen, plasma sodium, urine sodium, plasma potassium and urine potassium, were measured with an autoanalyzer (TBA-20R Toshiba, OM-6020 Daiichi Kagaku).
Histopathology: The kidneys were fixed in phosphate-buffered 10% formalin and its paraffin specimens were prepared and these sections were stained with hematoxylin.

[6] = system: Genital Grooming and Penile Erection; test: Effect on Genital Grooming and Penile Erection in Male Mice; type: in vivo, male ICR mice; details: oral; observed for one hour; n=10
Procedure: (d) Effect of Tested Compound on Genital Grooming and Penile Erection in Male Mice
Eight weeks old male ICR mice were housed under standard conditions of temperature, lighting and water supply before the experiment.
The test compound was dissolved in PEG400. After oral administration of the test compound, each mouse was transferred to an individual cage.

[7] = Toxicity by repetitive oral administration; type: in vivo, SD rat; details: 32 mg/kg once a day orally, 14 consecutive days
[8] = system: FK506-induced nephritis; test: Prevention of Experimental FK506-induced Nephritis by Cyclic Nucleotide Regulating Drugs (b); type: in vivo, male Sprague-Dawley rats; details: 20 mg/kg intramuscularly 30 minutes before FK506 10 mg/kg/day, 14 days
Procedure: (b) Prevention of Experimental FK506-induced Nephritis by Cyclic Nucleotide Regulating Drugs
FK506 was administered orally to male Sprague-Dawley rats (body weights; 292-329 g) fed with low sodium diet (0.05% Sodium) in a daily dose of 10 mg/kg/day for 14 days. FK506 was provided in a solid dispersion formulation and dissolved in distilled water to a final concentration of 2 mg/ml. Papaverine was dissolved in saline to 5 mg/ml. Dipyridamole (i.v. formulation; 5 mg/ml) was purchased from Dainippon Pharmaceutical Co., Ltd. Papaverine (20 mg/kg) or dipyridamole (20 mg/kg) was administered intramuscularly 30 minutes before FK506 dosing. After the final dosing of FK506, 24-hours urine was collected for urinalysis. Blood was withdrawn from the abdominal aorta under ether anesthesia 24 hours after final dosing of FK506, and plasma was separated for biochemical analysis and plasma renin activity measurements. The kidney was removed from each animal and was fixed with in 10% formalin solution for histological analysis.

[9] = system: FK506 nephritis; test: FK506 Nephritis Model (a); type: in vivo, Spontaneously hypertensive rats; details: orally twice a day for two weeks; FK506 18 mg/kg daily for 1 week
Procedure: (a) Spontaneously hypertensive rats weighing 250-300 g were used. FK506 dissolved in olive-oil containing 5% ethanol was given orally to the animals in a daily dose 18 mg/kg for 1 week. After the last dosing of FK506, 24-hours urine was collected for urinalysis. Blood was withdrawn from the abdominal aorta under ether anesthesia 24 hours after the last dosing of FK506, and plasma was separated by centrifugation for biochemical analysis.
The each test compound was dissolved in PEG 400 and given orally by the volume of 1 ml/kg twice a day for two weeks.
as §1

[10] = 0.1 μM [3H]-cGMP, 30° C., 10 minutes, read-out: IC50

SMILES: CCCc1c(C(=O)C(C)C)c2ccc(C(N)=O)cc2n1Cc1ccccc1C [37-(4), 3-Isobutyryl-1-(2-methylbenzyl)-2-propylindole-6-carboxamide]
- IC50 [1]: < 100 nM
- IC50 [2]: < 100 nM

SMILES: CCCc1c(C(=O)C(C)C)c2ccc(C(N)=O)cc2n1Cc1ccccc1[N+](=O)[O-] [37-(7), 3-Isobutyryl-1-(2-nitrobenzyl)-2-propylindole-6-carboxamide]
- IC50 [1]: < 100 nM
- IC50 [2]: < 100 nM

SMILES: CCCc1c(C(=O)C(C)C)c2ccc(C(N)=O)cc2n1Cc1ccc(F)cc1Cl [37-(9), 1-(2-Chloro-4-fluorobenzyl)-3-isobutyryl-2-propylindole-6-carboxamide]
- IC50 [1]: < 100 nM
- IC50 [2]: < 100 nM

SMILES: CCc1c(C(=O)C(C)C)c2ccc(C(N)=O)cc2n1Cc1ccccc1Cl [37-(12), 1-(2-Chlorobenzyl)-2-ethyl-3-isobutyrylindole-6-carboxamide]
- IC50 [1]: < 100 nM
- inhibiting activity (depression of ST segment) [3]: more than 50%
- IC50 [2]: < 100 nM

SMILES: CCCc1c(C(=O)c2ccccc2)c2ccc(C(N)=O)cc2n1Cc1ccccc1Cl [38-(1), 3-Benzoyl-1-(2-chlorobenzyl)-2-propylindole-6-carboxamide]
- inhibiting activity (depression of ST segment) [3]: more than 50%

SMILES: CCCc1c(C(=O)C2CC2)c2ccc(C(N)=O)cc2n1Cc1cc2c(cc1Cl)OCO2 [73-(33), 1-(6-Chloro-3,4-methylenedioxybenzyl)-3-cyclopropanecarbonyl-2-propylindole-6-carboxamide]
- IC50 [1]: < 100 nM
- IC50 [2]: < 100 nM

SMILES: CCCc1c(C(=O)C2CCCC2)c2ccc(C(N)=O)cc2n1Cc1ccccc1Cl [73-(36), 1-(2-Chlorobenzyl)-3-cyclopentanecarbonyl-2-propylindole-6-carboxamide]
- IC50 [1]: < 100 nM
- IC50 [2]: < 100 nM

SMILES: NC(=O)c1ccc2c3c(n(Cc4cc5c(cc4Cl)OCO5)c2c1)C(=O)CCC3 [75-(8), 9-(6-Chloro-3,4-methylenedioxybenzyl)-8-oxo-5,6,7,8-tetrahydrocarbazole-2-carboxamide]
- IC50 [1]: < 100 nM
- IC50 [2, 10]: < 100 nM

SMILES: CCCc1c(C(C)=O)c2ccc(C(N)=O)cc2n1Cc1ccccc1Cl [Example 3, 3-acetyl-1-(2-chlorobenzyl)-2-propylindole-6-carboxamide]
- inhibiting activity (depression of ST segment) [3]: more than 50%
- IC50 [4]: < 100 nM
- recovery in a measure of blood urea nitrogen [5]: more than 50%
- recovery in a measure of creatinine clearance (ml/kg/min) [5]: more than 40%
- IC50 [2]: < 100 nM

SMILES: CC(C)Cc1c(C(=O)C(C)C)c2ccc(C(N)=O)cc2n1Cc1ccccc1Cl [Example 12, 1-(2-Chlorobenzyl)-2-isobutyl-3-isobutyrylindole-6-carboxamide]
- IC50 [1]: < 100 nM
- inhibiting activity (depression of ST segment) [3]: more than 50%
- IC50 [2]: < 100 nM

SMILES: CCCc1c(C(=O)COC)c2ccc(C(N)=O)cc2n1Cc1cc2c(cc1Cl)OCO2 [Example 27-(8), 1-(6-Chloro-3,4-methylenedioxybenzyl)-3-methoxyacetyl-2-propylindole-6-carboxamide]
- IC50 [1]: < 100 nM
- increase of the frequencies of genital grooming (average) [6]: 266%
- lengthening of the duration of penile erection (average) [6]: 171%
- death on repetitive oral administration [7]: the dead at dose of 32 mg/kg once a day for 14 consecutive days could not be observed
- IC50 [4]: < 100 nM
- IC50 [2]: < 100 nM

SMILES: CCC(=O)c1c(CC)n(Cc2ccccc2Cl)c2cc(C#N)ccc12 [Example 42, 1-(2-chlorobenzyl)-2-ethyl-3-propionylindole-6-carbonitrile]
- inhibiting activity (depression of ST segment) [3]: more than 50%
- IC50 [2]: < 100 nM

SMILES: CCc1c(C(=O)C(C)C)c2ccc(C#N)cc2n1Cc1ccccc1Cl [Example 43, 1-(2-Chlorobenzyl)-2-ethyl-3-isobutyrylindole-6-carbonitrile]
- IC50 [1]: < 100 nM
- inhibiting activity (depression of ST segment) [3]: more than 50%
- IC50 [2]: < 100 nM

SMILES: CCCc1c([N+](=O)[O-])c2ccc(C(=O)OC)cc2n1Cc1ccccc1Cl [Example 72, methyl 1-(2-chlorobenzyl)-3-nitro-2-propylindole-6-carboxylate]
- IC50 [1]: < 100 nM
- IC50 [2, 10]: < 100 nM

SMILES: COc1ccc(Cc2nccc3cc(OC)c(OC)cc23)cc1OC [Papaverine]
- recovery in a measure of blood urea nitrogen [8]: more than 50%
- recovery in a serum creatinine [8]: more than 50%
- renofunction of FK506 dosed rats [8]: significantly improved renofunction

SMILES: CCCc1nn(C)c2c(=O)[nH]c(-c3cc(S(=O)(=O)N4CCN(C)CC4)ccc3OCC)nc12 [compound (IX), reference compound]
- recovery in a measure of blood urea nitrogen [5]: more than 50%
- recovery in a measure of creatinine clearance (ml/kg/min) [5]: more than 40%

SMILES: O=C(O)C1CCN(c2nc(NCc3ccc4c(c3)OCO4)c3cc(Cl)ccc3n2)CC1 [compound (VIII), reference compound]
- recovery in a measure of creatinine clearance (ml/kg/min) [9]: more than 45%
- recovery in urinary sodium excretion [9]: more than 50%
- recovery in a measure of blood urea nitrogen [5]: more than 50%
- recovery in a measure of creatinine clearance (ml/kg/min) [5]: more than 40%

SMILES: OCCN(CCO)c1nc(N2CCCCC2)c2nc(N(CCO)CCO)nc(N3CCCCC3)c2n1 [dipyridamole, Dipyridamole]
- recovery in a measure of blood urea nitrogen [8]: more than 50%
- recovery in a serum creatinine [8]: more than 50%
- renofunction of FK506 dosed rats [8]: significantly improved renofunction
